Patent US9085571B2, “Nonpeptide HIV-1 protease inhibitors” (Purdue Research Foundation, priority 2008, dated 2015)

Tests used:
HIV-1 protease = HIV-1 protease (Human immunodeficiency virus type 1 group M subtype B (isolate HXB2) (HIV-1), UniProt P04585); assay: Inhibition of HIV proteases (inhibition constants, method of Toth and Marshall); format: biochemical
Text: Techniques for measurement of the ability of the compounds herein described to decrease the proteolytic activity of proteases encoded by HIV are well known to those skilled in the relevant art and any one or combination of such techniques can be used to measure the inhibition of protease activity of the compound herein described. One illustrative method is described by Toth and Marshall (Toth & Marshall, Int. J. Pep. Protein Res. (1990), 36, 544-550). The disclosure of the foregoing is incorporated herein in its entirety by reference. In addition, the entirety of the disclosures of each of the publications cited herein are also incorporated herein by reference.

HIV-1 = assay: Inhibition of HIV-1 (IC50); format: cell-based, human immunodeficiency virus type 1; conditions: Human immunodeficiency virus 1

Row | SMILES | Ki (HIV-1 protease) [nM] | IC50 (HIV-1) [nM]
1 | CCCN(C)C(=O)c1cc(NC)cc(C(=O)N[C@@H](Cc2ccccc2)[C@H](O)CN(CC(C)C)S(=O)(=O)c2ccc(OC)cc2)c1 | 200 | –
2 | COCc1coc(CN(C)C(=O)c2cccc(C(=O)N[C@@H](Cc3ccccc3)[C@H](O)CN(CC(C)C)S(=O)(=O)c3ccc(OC)cc3)c2)n1 | 0.3 | –
3 | Cc1nc(CNC(=O)c2cccc(C(=O)N[C@@H](Cc3ccccc3)[C@H](O)CN3C[C@H]4CCCC[C@H]4C[C@H]3C(=O)NC(C)(C)C)c2)c(C)o1 | 20 | –
4 | COc1ccc(S(=O)(=O)N(CC(C)C)C[C@@H](O)[C@H](Cc2ccccc2)NC(=O)c2cccc(C(=O)N(C)Cc3nc(C)co3)c2)cc1 | 0.6 | 20
5 | CCCN(CCC)C(=O)c1cccc(C(=O)N[C@@H](Cc2ccccc2)[C@H](O)CN2C[C@H]3CCCC[C@H]3C[C@H]2C(=O)NC(C)(C)C)c1 | 100 | –
6 | CCCNC(=O)c1cc(N)cc(C(=O)N[C@@H](Cc2ccccc2)[C@H](O)CN(CC(C)C)S(=O)(=O)c2ccc(OC)cc2)c1 | 400 | –
7 | CCCNC(=O)c1cc(OC)cc(C(=O)N[C@@H](Cc2ccccc2)[C@H](O)CN(CC(C)C)S(=O)(=O)c2ccc(OC)cc2)c1 | 50 | –
8 | Cc1nc(CN(C)C(=O)c2cccc(C(=O)N[C@@H](Cc3ccccc3)[C@H](O)CN(CC(C)C)S(=O)(=O)c3ccc(N)cc3)c2)c(C)o1 | 2 | –
9 | CCCN(C)C(=O)c1cc(C(=O)N[C@@H](Cc2ccccc2)[C@H](O)CN(CC(C)C)S(=O)(=O)c2ccc(OC)cc2)cc(N(C)C(=O)OC(C)(C)C)c1 | 1000 | –
10 | COc1ccc(S(=O)(=O)N(CC(C)C)C[C@@H](O)[C@H](Cc2ccccc2)NC(=O)c2cc(N)cc(C(=O)N(C)Cc3nc(C)oc3C)c2)cc1 | 100 | –
11 | COc1ccc(S(=O)(=O)N(CC(C)C)C[C@@H](O)[C@H](Cc2ccccc2)NC(=O)c2ccc(C(=O)N(C)Cc3nc(C)oc3C)cc2)cc1 | 70 | –
12 | COc1ccc(S(=O)(=O)N(CC(C)C)C[C@@H](O)[C@H](Cc2ccccc2)NC(=O)c2cccc(C(=O)N3CCC[C@H]3c3nc(C)cs3)c2)cc1 | 30 | –
13 | COc1ccc(S(=O)(=O)N(CC(C)C)C[C@@H](O)[C@H](Cc2ccccc2)NC(=O)c2cc(OC)cc(C(=O)N(C)Cc3nc(C)oc3C)c2)cc1 | 1 | –
14 | COc1ccc(S(=O)(=O)N(CC(C)C)C[C@@H](O)[C@H](Cc2ccccc2)NC(=O)c2cc(OC)cc(C(=O)N(C)C3CCCCC3)c2)cc1 | 40 | –
15 | Cc1coc(CN(C)C(=O)c2cccc(C(=O)N[C@@H](Cc3ccccc3)[C@H](O)CN(CC(C)C)S(=O)(=O)c3ccc(CO)cc3)c2)n1 | 0.6 | –
16 | COc1ccc(S(=O)(=O)N(CC(C)C)C[C@@H](O)[C@H](Cc2ccccc2)NC(=O)c2cc(N)cc(C(=O)N(C)C3CCCCC3)c2)cc1 | 300 | –
17 | CCCNC(=O)c1cc(NC)cc(C(=O)N[C@@H](Cc2ccccc2)[C@H](O)CN(CC(C)C)S(=O)(=O)c2ccc(OC)cc2)c1 | 300 | –
18 | COc1ccc(S(=O)(=O)N(CC(C)C)C[C@@H](O)[C@H](Cc2ccccc2)NC(=O)c2cccc(C(=O)N3CCC[C@@H]3c3nc(C)cs3)c2)cc1 | 0.03 to 8 | 32
19 | COc1ccc(S(=O)(=O)N(CC(C)C)C[C@@H](O)[C@H](Cc2ccccc2)NC(=O)c2cc(C)cc(C(=O)N(C)Cc3nc(C)oc3C)c2)cc1 | 0.2 | 30
20 | COc1ccc(S(=O)(=O)N(CC(C)C)C[C@@H](O)[C@H](Cc2ccccc2)NC(=O)c2ccccc2C(=O)N(C)Cc2nc(C)oc2C)cc1 | 600 | –
21 | COc1ccc(S(=O)(=O)N(CC(C)C)C[C@@H](O)[C@H](Cc2ccccc2)NC(=O)c2cncc(C(=O)N(C)Cc3nc(C)oc3C)c2)cc1 | 6 | –
22 | Cc1nc(CN(C)C(=O)c2cccc(C(=O)N[C@@H](Cc3ccccc3)[C@H](O)CN3C[C@H]4CCCC[C@H]4C[C@H]3C(=O)NC(C)(C)C)c2)c(C)o1 | 5 | –
23 | COc1ccc(S(=O)(=O)N(CC(C)C)C[C@@H](O)[C@H](Cc2ccccc2)NC(=O)c2cc(C(=O)N(C)C3CCCCC3)cc(N(C)C(=O)OC(C)(C)C)c2)cc1 | 1000 | –
24 | COc1ccc(S(=O)(=O)N(CC(C)C)C[C@@H](O)[C@H](Cc2ccccc2)NC(=O)c2cccc(C(=O)N(C)Cc3oc(C)nc3C)c2)cc1 | 0.6 | –
25 | CNc1cc(C(=O)N[C@@H](Cc2ccccc2)[C@H](O)CN(CC(C)C)S(=O)(=O)c2ccc(OC)cc2)cc(C(=O)N(C)Cc2nc(C)oc2C)c1 | 5 | –
26 | CCCN(C)C(=O)c1cc(OC)cc(C(=O)N[C@@H](Cc2ccccc2)[C@H](O)CN(CC(C)C)S(=O)(=O)c2ccc(OC)cc2)c1 | 20 | –
27 | CCCN(CCC)C(=O)c1cccc(C(=O)N[C@@H](Cc2ccccc2)[C@H](O)CN(CC(C)C)S(=O)(=O)c2ccc(OC)cc2)c1 | 20 | –
28 | CNc1cc(C(=O)N[C@@H](Cc2ccccc2)[C@H](O)CN(CC(C)C)S(=O)(=O)c2ccc(OC)cc2)cc(C(=O)N(C)C2CCCCC2)c1 | 200 | –
29 | COc1ccc(S(=O)(=O)N(CC(C)C)C[C@@H](O)[C@H](Cc2ccccc2)NC(=O)c2cccc(C(=O)N(C)Cc3csc(C)n3)c2)cc1 | 0.1 | –
